Among the data in patent US12679824B2 (Hoffmann-La Roche Inc., priority 2020, dated 2026) are IC90 values, retold here.

One assay concerns Acinetobacter baumannii ATCC17961. As to the kind of experiment: 90% Growth Inhibitory Concentration (IC90) determination, antimicrobial susceptibility testing. Format: cell-based. Particulars: Acinetobacter baumannii, ATCC17961, 16 h, Acinetobacter baumannii ATCC17961; Iso-Sensitest broth; growth by optical density at 600 nm over 16h; concentration inhibiting 90% of the growth; read-out: ATCC 17961 IC90. The method, boiled down:
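Broth microdilution in Iso-Sensitest medium, compounds twofold diluted (e.g. 50–0.097 μM final), inoculum ~5×10^(5) CFU/ml, 35±2° C. OD600 was read every 20 min over 16 h. IC90 was derived from growth inhibition during logarithmic growth.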
The IC90 is the point of the concentration-response curve where the effect stands at 90%. `Cn1c(-c2cn(-c3ccc(NCCN)cn3)nc2C(F)(F)F)cnc1C(=O)Nc1ccc(C(=O)N2CCN(C(=O)C3CCNCC3)CC2)c(Cl)c1` [Example Z89, 5-[1-[5-(2-aminoethylamino)-2-pyridyl]-3-(trifluoromethyl)pyrazol-4-yl]-N-[3-chloro-4-(4-isonipecotoylpiperazine-1-carbonyl)phenyl]-1-methyl-imidazole-2-carboxamide]: the IC90 stood at 100 nM.
Still for that read-out and setting: next, `COCCNc1ccnc(-n2cc(-c3cnc(C(=O)Nc4ccc(C(=O)N5CCN(C(=O)C6CCNCC6)CC5)c(Cl)c4)n3C)c(C(F)(F)F)n2)n1` [Example A19, N-[3-chloro-4-[4-(piperidine-4-carbonyl)piperazine-1-carbonyl]phenyl]-5-[1-[4-(2-methoxyethylamino)pyrimidin-2-yl]-3-(trifluoromethyl)pyrazol-4-yl]-1-methyl-imidazole-2-carboxamide]: 1200 nM.
Turning to `Cn1c(-c2cn(-c3ccc(N)cn3)nc2C(F)(F)F)cnc1C(=O)Nc1ccc(C(=O)N2CC3(CC(NC(=O)[C@@H]4C[C@@H](O)CN4)C3)C2)c(Cl)c1` [Example Z25, 5-[1-(5-amino-2-pyridyl)-3-(trifluoromethyl)pyrazol-4-yl]-N-[3-chloro-4-[6-[[(2S,4R)-4-hydroxyprolyl]amino]-2-azaspiro[3.3]heptane-2-carbonyl]phenyl]-1-methyl-imidazole-2-carboxamide], the IC90 came to 540 nM.
Turning to `C[C@@H]1CNC[C@H](C)N1C(=O)c1ccc(NC(=O)c2ncc(-c3cn(-c4ccc(N)cn4)nc3C(F)(F)F)n2C)cc1Cl` [Example Z54, 5-[1-(5-amino-2-pyridyl)-3-(trifluoromethyl)pyrazol-4-yl]-N-[3-chloro-4-[(2S,6R)-2,6-dimethylpiperazine-1-carbonyl]phenyl]-1-methyl-imidazole-2-carboxamide], the IC90 stood at 350 nM.
Same read-out and setting: next, `COc1ccc(-n2cc(-c3cnc(C(=O)Nc4ccc(C(=O)N5CCN(C(=O)C6CCNCC6)CC5)c(Cl)c4)n3C)c(C(F)(F)F)n2)nc1` [Example A13, N-[3-chloro-4-[4-(piperidine-4-carbonyl)piperazine-1-carbonyl]phenyl]-5-[1-(5-methoxy-2-pyridyl)-3-(trifluoromethyl)pyrazol-4-yl]-1-methyl-imidazole-2-carboxamide]: 210 nM; `Cn1c(-c2cn(-c3ccc(N)cn3)nc2C(F)(F)F)cnc1C(=O)Nc1ccc(C(=O)N2CCC(C(=O)N3CCNC(CO)C3)CC2)c(Cl)c1` (centres unmarked) [Example H2, 5-[1-(5-amino-2-pyridyl)-3-(trifluoromethyl)pyrazol-4-yl]-N-[3-chloro-4-[4-[3-(hydroxymethyl)piperazine-1-carbonyl]piperidine-1-carbonyl]phenyl]-1-methyl-imidazole-2-carboxamide]: 880 nM; `Cn1c(-c2cn(-c3ccc(N)cn3)nc2C(F)(F)F)cnc1C(=O)Nc1ccc(C(=O)NCCCNC(=O)[C@@H]2C[C@@H](O)CN2)c(Cl)c1` [Example Z26, 5-[1-(5-amino-2-pyridyl)-3-(trifluoromethyl)pyrazol-4-yl]-N-[3-chloro-4-[3-[[(2S,4R)-4-hydroxyprolyl]amino]propylcarbamoyl]phenyl]-1-methyl-imidazole-2-carboxamide]: 690 nM.
For `COc1ccc(-n2cc(-c3cnc(C(=O)Nc4ccc(C(=O)N5CCN(C(=O)[C@@H]6CCNC[C@H]6O)CC5)c(Cl)c4)n3C)c(C(F)(F)F)n2)nc1` [Example F4, N-[3-chloro-4-[4-[(3S,4R)-3-hydroxypiperidine-4-carbonyl]piperazine-1-carbonyl]phenyl]-5-[1-(5-methoxy-2-pyridyl)-3-(trifluoromethyl)pyrazol-4-yl]-1-methyl-imidazole-2-carboxamide], the IC90 was found to be 310 nM.
With `Cn1c(-c2cn(-c3ncc(N)cc3F)nc2C(F)(F)F)cnc1C(=O)Nc1ccc(C(=O)N2CCN(C(=O)C3CCNCC3)CC2)c(Cl)c1` [Example Z71, 5-[1-(5-amino-3-fluoro-2-pyridyl)-3-(trifluoromethyl)pyrazol-4-yl]-N-[3-chloro-4-[4-(piperidine-4-carbonyl)piperazine-1-carbonyl]phenyl]-1-methyl-imidazole-2-carboxamide], the IC90 turned out to be 310 nM.
`CCN(CC)C(=O)c1ccc(NC(=O)c2ncc(-c3cn(-c4ccc(N)cn4)nc3C(F)(F)F)n2C)cc1Cl` [Example Z76, 5-[1-(5-amino-2-pyridyl)-3-(trifluoromethyl)pyrazol-4-yl]-N-[3-chloro-4-(diethylcarbamoyl)phenyl]-1-methyl-imidazole-2-carboxamide]: the IC90 turned out to be 1140 nM.
On the same count and under the same terms, to `Cn1c(-c2cn(-c3ccc(N)cn3)nc2C(F)(F)F)cnc1C(=O)Nc1ccc(C(=O)NCC2CCN(C(=O)[C@@H]3C[C@@H](O)CN3)CC2)c(Cl)c1` [Example Z34, 5-[1-(5-amino-2-pyridyl)-3-(trifluoromethyl)pyrazol-4-yl]-N-[3-chloro-4-[[1-[(2S,4R)-4-hydroxyprolyl]-4-piperidyl]methylcarbamoyl]phenyl]-1-methyl-imidazole-2-carboxamide] belongs 410 nM; to `Cc1nc(N)ccc1-n1cc(-c2cnc(C(=O)Nc3ccc(C(=O)N4CCN(C(=O)C5CCNCC5)CC4)c(Cl)c3)n2C)c(C(F)(F)F)n1` [Example Z79, 5-[1-(6-amino-2-methyl-3-pyridyl)-3-(trifluoromethyl)pyrazol-4-yl]-N-[3-chloro-4-[4-(piperidine-4-carbonyl)piperazine-1-carbonyl]phenyl]-1-methyl-imidazole-2-carboxamide], 1200 nM; to `Cn1c(-c2cn(-c3ccc(N)cn3)nc2C(F)(F)F)cnc1C(=O)Nc1ccc(C(=O)N[C@H]2CC[C@H](N)C2)c(Cl)c1` [Example Z16], 860 nM.
Still for that read-out and setting: next, `Cn1c(-c2cn(-c3ccc(N)cn3)nc2C(F)(F)F)cnc1C(=O)Nc1ccc(C(=O)NCC2CC2N)c(Cl)c1` (centres unmarked) [Example Z18, N-[4-[(2-aminocyclopropyl)methylcarbamoyl]-3-chloro-phenyl]-5-[1-(5-amino-2-pyridyl)-3-(trifluoromethyl)pyrazol-4-yl]-1-methyl-imidazole-2-carboxamide]: 1590 nM; `Cn1c(-c2cn(-c3ccc(N)cn3)nc2C(F)(F)F)cnc1C(=O)Nc1ccc(C(=O)NCCN2CCNCC2)c(Cl)c1` [Example Z65, 5-[1-(5-amino-2-pyridyl)-3-(trifluoromethyl)pyrazol-4-yl]-N-[3-chloro-4-(2-piperazinoethylcarbamoyl)phenyl]-1-methyl-imidazole-2-carboxamide]: 760 nM.
Turning to `Cn1c(-c2cn(-c3ccccn3)nc2C(F)(F)F)cnc1C(=O)Nc1ccc(C(=O)N2CCN(C(=O)C3CCNCC3)CC2)c(Cl)c1` [Example A11, N-[3-chloro-4-[4-(piperidine-4-carbonyl)piperazine-1-carbonyl]phenyl]-1-methyl-5-[1-(2-pyridyl)-3-(trifluoromethyl)pyrazol-4-yl]imidazole-2-carboxamide], the IC90 is 240 nM.
With `Cn1c(-c2cn(-c3ccc(N)cn3)nc2C(F)(F)F)cnc1C(=O)Nc1ccc(C(=O)NCCNC(=O)[C@@H]2C[C@@H](O)CN2)c(Cl)c1` [Example Z33, 5-[1-(5-amino-2-pyridyl)-3-(trifluoromethyl)pyrazol-4-yl]-N-[3-chloro-4-[2-[[(2S,4R)-4-hydroxyprolyl]amino]ethylcarbamoyl]phenyl]-1-methyl-imidazole-2-carboxamide], the IC90 was 1220 nM.
On the same count and under the same terms, to `Cn1c(-c2cn(-c3cnc(N)c(F)c3)nc2C(F)(F)F)cnc1C(=O)Nc1ccc(C(=O)N2CCN(C(=O)C3CCNCC3)CC2)c(Cl)c1` [Example Z74, 5-[1-(6-amino-5-fluoro-3-pyridyl)-3-(trifluoromethyl)pyrazol-4-yl]-N-[3-chloro-4-[4-(piperidine-4-carbonyl)piperazine-1-carbonyl]phenyl]-1-methyl-imidazole-2-carboxamide] belongs 750 nM; to `Cn1c(-c2cn(-c3ccc(N)cn3)nc2C(F)(F)F)cnc1C(=O)Nc1ccc(C(=O)N2CCC3(CC2)CCN(C(=O)[C@@H]2C[C@@H](O)CN2)C3)c(Cl)c1` [Example Z22, 5-[1-(5-amino-2-pyridyl)-3-(trifluoromethyl)pyrazol-4-yl]-N-[3-chloro-4-[2-[(2S,4R)-4-hydroxyprolyl]-2,8-diazaspiro[4.5]decane-8-carbonyl]phenyl]-1-methyl-imidazole-2-carboxamide], 510 nM.

The assay is the same for the next values; noted with them: Acinetobacter baumannii, ATCC17961, 16 h, read-out: ATCC 17961 IC90.
Take `Cn1c(-c2cn(-c3ccc(N)cn3)nc2C(F)(F)F)cnc1C(=O)Nc1ccc(C(=O)N2CCN(C(=O)[C@@H]3CC(O)CCN3)CC2)c(Cl)c1` (some centres unmarked) [Example J1]: the IC90 came out at 580 nM.
On to `Cn1c(-c2cn(-c3ccc(N)cn3)nc2C(F)(F)F)cnc1C(=O)Nc1ccc(C(=O)N2CC[C@H](CN)C2)c(Cl)c1` [Example Z1, N-[4-[(3R)-3-(aminomethyl)pyrrolidine-1-carbonyl]-3-chloro-phenyl]-5-[1-(5-amino-2-pyridyl)-3-(trifluoromethyl)pyrazol-4-yl]-1-methyl-imidazole-2-carboxamide], for which the IC90 was determined as 480 nM.
Same read-out and setting: next, `Cn1c(-c2cn(-c3ccc(N)c(F)n3)nc2C(F)(F)F)cnc1C(=O)Nc1ccc(C(=O)N2CCN(C(=O)C3CCNCC3)CC2)c(Cl)c1` [Example Z72, 5-[1-(5-amino-6-fluoro-2-pyridyl)-3-(trifluoromethyl)pyrazol-4-yl]-N-[3-chloro-4-[4-(piperidine-4-carbonyl)piperazine-1-carbonyl]phenyl]-1-methyl-imidazole-2-carboxamide]: 250 nM.
As to `Cn1c(-c2cn(-c3ncccn3)nc2C(F)(F)F)cnc1C(=O)Nc1ccc(C(=O)N2CCN(C(=O)[C@H]3[C@@H]4CNC[C@@H]43)CC2)c(Cl)c1` [Example F1, N-[4-[4-[(1R,5S)-3-Azabicyclo[3.1.0]hexane-6-carbonyl]piperazine-1-carbonyl]-3-chloro-phenyl]-1-methyl-5-[1-pyrimidin-2-yl-3-(trifluoromethyl)pyrazol-4-yl]imidazole-2-carboxamide], the IC90 was 450 nM.
